Patent US6914045B2, “Glycopeptide antibiotics” (Wyeth Holdings Corporation, priority 2001, dated 2005)

Tests used:
Assay in all cases: in vitro antibacterial evaluation, MIC by broth dilution
Assay type in all cases: cell-based
Escherichia coli = conditions: 18 hours at 35° C.
Staphylococcus sp. = conditions: broth dilution, 18 hours at 35° C.
Procedure, shortened: (§1)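 Broth dilution per NCCLS standard M7-A2 in Muller-Hinton II […], with an inoculum of 5×10^5 CFU/mL and antibiotic spanning 64-0.06 μg/mL. The MIC is the lowest concentration that inhibits growth of the organism.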

Enterococcus sp. = conditions: broth dilution, 18 hours at 35° C.
Procedure, shortened: as §1

Streptococcus sp. = conditions: broth dilution, 18 hours at 35° C.
Procedure, shortened: as §1

CC(c1ccccc1)C1NC(=O)CNC(=O)C(CO)NC(=O)C(C(O)C2CNC(=N)N2C2OC(CO)C(O)C(O)C2O)NC(=O)C(C(O)C2CNC(=N)N2)NC(=O)C(Cc2ccc(OC3OC(CO)C(OC4OC(CO)C(O)C(O)C4OCc4ccc(OCc5ccccc5)cc4)C(O)C3O)cc2)NC1=O (stereo not drawn) [Example 231b, Cyclo[glycyl-β-methylphenylalanyl-O-[4-O-[2-O-[4-(phenylmethoxy)benzyl]hexopyranosyl]-hexopyranosyl]tyrosyl-3-(2-iminoimidazolidin-4-yl)seryl-3-(3-hexopyranosyl-2-iminoimidazolidin-4-yl)serylseryl]]
MIC Escherichia coli (ATCC 25922) (Escherichia coli): >128 µg/mL | MIC Escherichia coli (GC 4559) (Escherichia coli): >128 µg/mL | MIC Escherichia coli (GC 4560) (Escherichia coli): 0.25 to 4 µg/mL | MIC Coagulase Negative Staphylococcus (GC 4547) (Staphylococcus sp.): 4 to 32 µg/mL | MIC Coagulase Negative Staphylococcus (GC 4548) (Staphylococcus sp.): 2 to 32 µg/mL | MIC Coagulase Negative Staphylococcus (GC 4549) (Staphylococcus sp.): 2 to 16 µg/mL | MIC Coagulase Negative Staphylococcus (GC 4551) (Staphylococcus sp.): 8 to 32 µg/mL | MIC Coagulase Negative Staphylococcus (GC 6257) (Staphylococcus sp.): 1 to 32 µg/mL | MIC Staphylococcus aureus (ATCC 29213) (Staphylococcus sp.): 4 to 64 µg/mL | MIC Staphylococcus aureus (GC 1131) (Staphylococcus sp.): 4 to 64 µg/mL | MIC Staphylococcus aureus (GC 3051) (Staphylococcus sp.): 4 to 64 µg/mL | MIC Staphylococcus aureus (GC 3053) (Staphylococcus sp.): 8 to 64 µg/mL | MIC Staphylococcus aureus (GC 4541) (Staphylococcus sp.): 4 to 32 µg/mL | MIC Staphylococcus aureus (GC 4542) (Staphylococcus sp.): 4 to 32 µg/mL | MIC Staphylococcus aureus (GC 4544) (Staphylococcus sp.): 4 to 64 µg/mL | MIC Staphylococcus aureus (GC 4545) (Staphylococcus sp.): 4 to 32 µg/mL | MIC Staphylococcus aureus-SMITH (GC 4543) (Staphylococcus sp.): 4 to 64 µg/mL | MIC Staphylococcus haemolyticus (GC 4546) (Staphylococcus sp.): 4 to 32 µg/mL | MIC Staphylococcus aureus (ATCC 29213) (Staphylococcus sp.; strain ATCC 29213): 4 to 64 µg/mL | MIC Staphylococcus aureus (GC 1131) (Staphylococcus sp.; strain GC 1131): 4 to 64 µg/mL | MIC Staphylococcus aureus (GC 3051) (Staphylococcus sp.; strain GC 3051): 4 to 64 µg/mL | MIC Staphylococcus aureus (GC 3053) (Staphylococcus sp.; strain GC 3053): 8 to 64 µg/mL | MIC Staphylococcus aureus (GC 4541) (Staphylococcus sp.; strain GC 4541): 4 to 32 µg/mL | MIC Staphylococcus aureus (GC 4542) (Staphylococcus sp.; strain GC 4542): 4 to 32 µg/mL | MIC Staphylococcus aureus-SMITH (GC 4543) (Staphylococcus sp.; strain GC 4543): 4 to 64 µg/mL | MIC Staphylococcus aureus (GC 4544) (Staphylococcus sp.; strain GC 4544): 4 to 64 µg/mL | MIC Staphylococcus aureus (GC 4545) (Staphylococcus sp.; strain GC 4545): 4 to 32 µg/mL | MIC Staphylococcus haemolyticus (GC 4546) (Staphylococcus sp.; strain GC 4546): 4 to 32 µg/mL | MIC Coagulase Negative Staphylococcus (GC 4547) (Staphylococcus sp.; strain GC 4547): 4 to 32 µg/mL | MIC Coagulase Negative Staphylococcus (GC 4548) (Staphylococcus sp.; strain GC 4548): 2 to 32 µg/mL | MIC Coagulase Negative Staphylococcus (GC 4549) (Staphylococcus sp.; strain GC 4549): 2 to 16 µg/mL | MIC Coagulase Negative Staphylococcus (GC 4551) (Staphylococcus sp.; strain GC 4551): 8 to 32 µg/mL | MIC Coagulase Negative Staphylococcus (GC 6257) (Staphylococcus sp.; strain GC 6257): 1 to 32 µg/mL | MIC Enterococcus avium (GC 4558) (Enterococcus sp.): 8 to 64 µg/mL | MIC Enterococcus faecalis (ATCC 29212) (Enterococcus sp.): 8 to 128 µg/mL | MIC Enterococcus faecalis (GC 2242) (Enterococcus sp.): 8 to 64 µg/mL | MIC Enterococcus faecalis (GC 2691) (Enterococcus sp.): 16 to 64 µg/mL | MIC Enterococcus faecalis (GC 3059) (Enterococcus sp.): 16 to 128 µg/mL | MIC Enterococcus faecalis (GC 4552) (Enterococcus sp.): 8 to 128 µg/mL | MIC Enterococcus faecalis (GC 4553) (Enterococcus sp.): 8 to 128 µg/mL | MIC Enterococcus faecalis (GC 4554) (Enterococcus sp.): 16 to 128 µg/mL | MIC Enterococcus faecalis (GC 6189) (Enterococcus sp.): 8 to 64 µg/mL | MIC Enterococcus faecium (GC 2243) (Enterococcus sp.): 8 to 128 µg/mL | MIC Enterococcus faecium (GC 4556) (Enterococcus sp.): 16 to 128 µg/mL | MIC Enterococcus faecium (GC 4557) (Enterococcus sp.): 4 to 16 µg/mL | MIC Enterococcus faecalis (ATCC 29212) (Enterococcus sp.; inoculum 5×10^5 CFU/mL, strain ATCC 29212): 8 to 128 µg/mL | MIC Enterococcus faecalis (GC 2242) (Enterococcus sp.; inoculum 5×10^5 CFU/mL, strain GC 2242): 8 to 64 µg/mL | MIC Enterococcus faecium (GC 2243) (Enterococcus sp.; inoculum 5×10^5 CFU/mL, strain GC 2243): 8 to 128 µg/mL | MIC Enterococcus faecalis (GC 2691) (Enterococcus sp.; inoculum 5×10^5 CFU/mL, strain GC 2691): 16 to 64 µg/mL | MIC Enterococcus faecalis (GC 3059) (Enterococcus sp.; inoculum 5×10^5 CFU/mL, strain GC 3059): 16 to 128 µg/mL | MIC Enterococcus faecalis (GC 4552) (Enterococcus sp.; inoculum 5×10^5 CFU/mL, strain GC 4552): 8 to 128 µg/mL | MIC Enterococcus faecalis (GC 4553) (Enterococcus sp.; inoculum 5×10^5 CFU/mL, strain GC 4553): 8 to 128 µg/mL | MIC Enterococcus faecalis (GC 4554) (Enterococcus sp.; inoculum 5×10^5 CFU/mL, strain GC 4554): 16 to 128 µg/mL | MIC Enterococcus faecium (GC 4556) (Enterococcus sp.; inoculum 5×10^5 CFU/mL, strain GC 4556): 16 to 128 µg/mL | MIC Enterococcus faecium (GC 4557) (Enterococcus sp.; inoculum 5×10^5 CFU/mL, strain GC 4557): 4 to 16 µg/mL | MIC Enterococcus avium (GC 4558) (Enterococcus sp.; inoculum 5×10^5 CFU/mL, strain GC 4558): 8 to 64 µg/mL | MIC Enterococcus faecalis (GC 6189) (Enterococcus sp.; inoculum 5×10^5 CFU/mL, strain GC 6189): 8 to 64 µg/mL | MIC Streptococcus agalactiae (GC 4564) (Streptococcus sp.): 1 to 8 µg/mL | MIC Streptococcus pneumoniae (ATCC 6301) (Streptococcus sp.): 0.25 to 2 µg/mL | MIC Streptococcus pneumoniae (GC 1894) (Streptococcus sp.): <0.06 to 2 µg/mL | MIC Streptococcus pneumoniae (GC 4565) (Streptococcus sp.): 0.5 to 8 µg/mL | MIC Streptococcus pyogenes (GC 4563) (Streptococcus sp.): 1 to 8 µg/mL | MIC Streptococcus pneumoniae (ATCC 6301) (Streptococcus sp.; inoculum 5×10^5 CFU/mL, strain ATCC 6301): 0.25 to 2 µg/mL | MIC Streptococcus pneumoniae (GC 1894) (Streptococcus sp.; inoculum 5×10^5 CFU/mL, strain GC 1894): <0.06 to 2 µg/mL | MIC Streptococcus pyogenes (GC 4563) (Streptococcus sp.; inoculum 5×10^5 CFU/mL, strain GC 4563): 1 to 8 µg/mL | MIC Streptococcus agalactiae (GC 4564) (Streptococcus sp.; inoculum 5×10^5 CFU/mL, strain GC 4564): 1 to 8 µg/mL | MIC Streptococcus pneumoniae (GC 4565) (Streptococcus sp.; inoculum 5×10^5 CFU/mL, strain GC 4565): 0.5 to 8 µg/mL
